Assay results reported in patent publication US5972670A, “Blue copper oxidase mutants with enhanced activity” (priority 1998, dated 1999).
Read-outs that look alike come from different tables or passages of the source.

Columns and labels:
[1] = molecular target: T1, Rhizoctonia solani laccase isozyme 4 (rsl4; RsL), wild type (pJiWa59), SEQ ID NO:25 (Thanatephorus cucumeris, UniProt Q02081); experiment: Syringaldazine and ABTS oxidase kinetics (Km, kcat), RsL wt; assay type: biochemical; settings: 8 mM MES-NaOH buffer, pH 5.3, spectroscopic
T1 sequence (Q02081 21-531): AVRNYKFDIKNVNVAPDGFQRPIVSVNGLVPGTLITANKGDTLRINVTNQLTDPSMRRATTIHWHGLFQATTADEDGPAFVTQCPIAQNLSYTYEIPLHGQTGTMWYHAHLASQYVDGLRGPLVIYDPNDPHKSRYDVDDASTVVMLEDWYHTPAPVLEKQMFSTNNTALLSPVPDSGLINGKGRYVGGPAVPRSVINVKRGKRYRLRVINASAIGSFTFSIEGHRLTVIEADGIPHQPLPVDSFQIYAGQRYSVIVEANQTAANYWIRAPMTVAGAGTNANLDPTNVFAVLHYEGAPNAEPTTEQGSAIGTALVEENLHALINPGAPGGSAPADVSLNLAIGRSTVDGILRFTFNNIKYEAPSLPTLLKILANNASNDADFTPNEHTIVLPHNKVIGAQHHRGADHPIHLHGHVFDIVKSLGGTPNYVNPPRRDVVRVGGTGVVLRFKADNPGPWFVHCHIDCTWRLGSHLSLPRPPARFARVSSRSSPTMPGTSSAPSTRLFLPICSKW
Description: (§1) The molecular weights of the mature laccases are used to calculate both extinction coefficients and turnover numbers. The molecular weights are determined from the deduced amino acid sequences of the DNA sequences (FIG. 6: SEQ ID NOS:24 and 25, and FIG. 7: SEQ ID NOS:26 and 27). Protein concentrations (expressed as subunits) are measured based on the extinction coefficients determined by quantitative amino acid analysis.
(§2) Km and kcat are obtained from the initial rate (v), enzyme concentration (E), and substrate concentration (S) in accordance to the equation v=kcat ES/(Km +S) by non-linear regression fitting using the Prizm program (GraphPad, San Diego, Calif.). […] The O2 concentration in air-saturated buffer solution is assumed as the same in plain water (0.28 mM).

[2] = molecular target: Myceliophthora thermophila laccase (MtL) mutant "M" L513F (pRaMB17M) (Thermothelomyces thermophilus, UniProt G2QG31, form not given/L556F); assay type: biochemical
Description: as §1, §2

[3] = molecular target: Myceliophthora thermophila laccase (MtL) mutant "T" V509L/S510E/G511A (pBANe22T) (Thermothelomyces thermophilus, UniProt G2QG31, G554A/S553E/V552L); assay type: biochemical
Description: as §1, §2

[4] = molecular target: Rhizoctonia solani laccase isozyme 4 (RsL) mutant "M" L470F (pJiWa86) (Thanatephorus cucumeris, UniProt Q02081); assay type: biochemical
Description: as §1, §2

[5] = molecular target: Rhizoctonia solani laccase isozyme 4 (RsL) mutant "T" L466V/E467S/A468G (pJiWa85) (Thanatephorus cucumeris, UniProt Q02081); assay type: biochemical
Description: as §1, §2

[6] = molecular target: T2, Myceliophthora thermophila laccase (lcc-1; MtL), wild type (pRaMB17), SEQ ID NO:27 (Thermothelomyces thermophilus, UniProt G2QG31); experiment: Syringaldazine and ABTS oxidase kinetics (Km, kcat), MtL wt; settings: 8 mM MES-NaOH buffer, pH 5.3, spectroscopic
T2 sequence (G2QG31 with tags, fused parts or gaps INS108NSII/R109G/T291C/S323N/P398A/P430A/T522S/A533S/H588R): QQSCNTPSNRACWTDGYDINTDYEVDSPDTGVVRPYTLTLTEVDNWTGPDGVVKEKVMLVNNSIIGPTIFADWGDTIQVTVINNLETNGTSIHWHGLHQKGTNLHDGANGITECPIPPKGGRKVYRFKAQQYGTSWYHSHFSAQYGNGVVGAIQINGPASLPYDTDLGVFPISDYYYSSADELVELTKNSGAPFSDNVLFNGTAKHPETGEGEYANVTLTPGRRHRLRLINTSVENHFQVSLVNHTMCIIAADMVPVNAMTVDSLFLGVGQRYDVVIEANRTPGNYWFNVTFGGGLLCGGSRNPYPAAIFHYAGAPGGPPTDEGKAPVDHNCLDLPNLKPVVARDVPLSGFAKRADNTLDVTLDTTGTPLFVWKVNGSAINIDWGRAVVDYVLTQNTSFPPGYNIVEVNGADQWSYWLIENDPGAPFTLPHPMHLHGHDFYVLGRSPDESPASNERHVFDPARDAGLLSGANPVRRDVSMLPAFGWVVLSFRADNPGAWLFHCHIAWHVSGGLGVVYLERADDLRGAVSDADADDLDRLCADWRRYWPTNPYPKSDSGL
Description: as §1, §2

[7] = substrate: CCn1c(=NN=c2sc3cc(S(=O)(=O)O)ccc3n2CC)sc2cc(S(=O)(=O)O)ccc21; experiment: purified protein, by the assay type; settings: 8 mM MES-NaOH buffer, pH 5.3, spectroscopic
[8] = substrate: COc1cc(C=NN=Cc2cc(OC)c(O)c(OC)c2)cc(OC)c1O; experiment: purified protein, by the assay type; settings: 8 mM MES-NaOH buffer, pH 5.3, spectroscopic
[9] = 8 mM MES-NaOH buffer, pH 5.3, spectroscopic
[10] = read-out: Km (SGZ), 8 mM MES-NaOH buffer, pH 5.3, spectroscopic
[11] = read-out: Km (ABTS), 8 mM MES-NaOH buffer, pH 5.3, spectroscopic

COc1cc(C=NN=Cc2cc(OC)c(O)c(OC)c2)cc(OC)c1O [SGZ, syringaldazine]
kcat (SGZ) [1]: 9.17 ± 0.667 s⁻¹ | kcat (SGZ) [2, 9]: 55 ± 1.67 s⁻¹ | Km [2, 10]: 1.8 ± 0.2 µM | kcat (SGZ) [3, 9]: 6 ± 0.333 s⁻¹ | Km [3, 10]: 0.9 ± 0.2 µM | kcat (SGZ) [4, 9]: 4.25 ± 0.183 s⁻¹ | Km [4, 10]: 35 ± 4 µM | kcat (SGZ) [5, 9]: 0.0183 ± 0.0017 s⁻¹ | Km [5, 10]: 3.9 ± 0.3 µM

CCn1c(=NN=c2sc3cc(S(=O)(=O)O)ccc3n2CC)sc2cc(S(=O)(=O)O)ccc21 [ABTS, 2,2'-azinobis(3-ethylbenzthiazoline-6-sulfonic acid)]
kcat (ABTS) [1]: 41.67 ± 1.67 s⁻¹ | kcat (ABTS) [2, 9]: 30 ± 1.67 s⁻¹ | Km [2, 11]: 43 ± 3 µM | kcat (ABTS) [3, 9]: 8.83 ± 0.333 s⁻¹ | kcat (ABTS) [4, 9]: 12.7 ± 0.5 s⁻¹ | Km [4, 11]: 125 ± 13 µM | kcat (ABTS) [5, 9]: 0.333 ± 0.017 s⁻¹ | Km [5, 11]: 60 ± 4 µM | kcat (ABTS) [6]: 63.33 ± 5 s⁻¹

B1: Myceliophthora thermophila laccase (lcc-1; MtL), wild type (pRaMB17), SEQ ID NO:27 (Thermothelomyces thermophilus ATCC 42464) (protein)
chain: T2 sequence (G2QG31 with tags, fused parts or gaps INS108NSII/R109G/T291C/S323N/P398A/P430A/T522S/A533S/H588R)
Km ([7]; other: MtL wt): 110 ± 20 µM | Km ([8]; other: MtL wt): 1.4 ± 0.2 µM

B2: Rhizoctonia solani laccase isozyme 4 (rsl4; RsL), wild type (pJiWa59), SEQ ID NO:25 (Thanatephorus cucumeris) (protein)
chain: T1 sequence (Q02081 21-531)
Km ([7]; other: RsL wt): 52 ± 6 µM | Km ([8]; other: RsL wt): 28 ± 4 µM
